Test results as given in patent US10214490B2, “Picolinamides as fungicides” (Dow AgroSciences LLC, priority 2016, dated 2019).
Read-outs that look alike come from different tables or passages of the source.

Columns and labels:
Type in all cases: in vivo
Zymoseptoria tritici = assay: Fungicidal activity: leaf blotch of wheat (SEPTTR), disease control on wheat seedlings; settings: for pest or weed control at 100 ppm / pest or weed control at 121.5 g/ha: Zymoseptoria tritici
Procedure: Technical grades of materials were dissolved in acetone, which were then mixed with nine volumes of water containing 110 ppm Triton X-100. The fungicide solutions were applied onto wheat seedlings using an automated booth sprayer to run-off. All sprayed plants were allowed to air dry prior to further handling. All fungicides were evaluated using the aforementioned method for their activity vs. all target diseases, unless stated otherwise. Wheat leaf blotch and brown rust activity were also evaluated using track spray applications, in which case the fungicides were formulated as EC formulations, containing 0.1% Trycol 5941 in the spray solutions. Wheat plants (variety Yuma) were grown from seed in a greenhouse in 50% mineral soil/50% soil-less Metro mix until the first leaf was fully emerged, with 7-10 seedlings per pot. These plants were inoculated with an aqueous spore suspension of Zymoseptoria tritici either prior to or after fungicide treatments. After inoculation the plants were kept in 100% relative humidity (one day in a dark dew chamber followed by two to three days in a lighted dew chamber at 20° C.) to permit spores to germinate and infect the leaf. The plants were then transferred to a greenhouse set at 20° C. for disease to develop. When disease symptoms were fully expressed on the 1st leaves of untreated plants, infection levels were assessed on a scale of 0 to 100 percent disease severity. Percent disease control was calculated using the ratio of disease severity on treated plants relative to untreated plants.

Puccinia triticina = assay: Fungicidal activity: wheat brown rust (PUCCRT), disease control on wheat seedlings
Procedure: Technical grades of materials were dissolved in acetone, which were then mixed with nine volumes of water containing 110 ppm Triton X-100. The fungicide solutions were applied onto wheat seedlings using an automated booth sprayer to run-off. All sprayed plants were allowed to air dry prior to further handling. All fungicides were evaluated using the aforementioned method for their activity vs. all target diseases, unless stated otherwise. Wheat leaf blotch and brown rust activity were also evaluated using track spray applications, in which case the fungicides were formulated as EC formulations, containing 0.1% Trycol 5941 in the spray solutions. Wheat plants (variety Yuma) were grown from seed in a greenhouse in 50% mineral soil/50% soil-less Metro mix until the first leaf was fully emerged, with 7-10 seedlings per pot. These plants were inoculated with an aqueous spore suspension of Puccinia triticina either prior to or after fungicide treatments. After inoculation the plants were kept in a dark dew room at 22° C. with 100% relative humidity overnight to permit spores to germinate and infect the leaf. The plants were then transferred to a greenhouse set at 24° C. for disease to develop. Fungicide formulation, application and disease assessment followed the procedures as described in the Example A. Results of the evaluations are shown below in Table 4.

Phakopsora pachyrhizi = assay: Fungicidal activity: Asian soybean rust (PHAKPA), disease control on soybean seedlings; settings: High Volume at 25 ppm
Procedure: Technical grades of materials were dissolved in acetone, which were then mixed with nine volumes of water containing 0.011% Tween 20. The fungicide solutions were applied onto soybean seedlings using an automated booth sprayer to run-off. All sprayed plants were allowed to air dry prior to further handling.
Soybean plants (variety Williams 82) were grown in soil-less Metro mix, with one plant per pot. Two weeks old seedlings were used for testing. Plants were inoculated either 3 days prior to or 1 day after fungicide treatments. Plants were incubated for 24 h in a dark dew room at 22° C. and 100% relative humidity then transferred to a growth room at 23° C. for disease to develop. Disease severity was assessed on the sprayed leaves.

[1] = HV activity at 100 ppm, 3 Day Curative
[2] = HV activity at 100 ppm, 1 Day Protectant
[3] = 24 h, LV activity at 121.5 g/H, 1 Day Protectant, read-out: SEPTTR 1DP disease control rating
[4] = 72 h, LV activity at 121.5 g/H, 3 Day Curative, read-out: SEPTTR 3DC disease control rating
[5] = Puccinia triticina, 24 h, LV activity at 121.5 g/H, 1 Day Protectant, read-out: PUCCRT 1DP disease control rating
[6] = 24 h, 1 Day Protectant, read-out: PHAKPA 1DP disease control rating
[7] = 72 h, 3 Day Curative, read-out: PHAKPA 3DC disease control rating
[8] = Puccinia triticina, 72 h, LV activity at 121.5 g/H, 3 Day Curative, read-out: PUCCRT 3DC disease control rating
[9] = LV activity at 121.5 g/H, 3 Day Curative

For `COc1cc(F)ccc1[C@@H](Sc1ccccc1)[C@H](C)OC(=O)[C@H](C)NC(=O)c1nccc(OC)c1O` [Compound 40], the pest or weed control at 100 ppm (Zymoseptoria tritici; 24 h, HV activity at 100 ppm, 1 Day Protectant, read-out: SEPTTR 1DP disease control rating) was greater than 80%, the pest or weed control at 100 ppm (Zymoseptoria tritici; 72 h, HV activity at 100 ppm, 3 Day Curative, read-out: SEPTTR 3DC disease control rating) was greater than 80% and the “PUCCRT 3DC disease control rating” value (Puccinia triticina; [1]) was “A (>80)”. For the same molecule, the pest or weed control at 100 ppm (Puccinia triticina; Puccinia triticina, 24 h, HV activity at 100 ppm, 1 Day Protectant, read-out: PUCCRT 1DP disease control rating) was greater than 80%.

For `COc1cc(F)ccc1[C@@H](Sc1ccccc1)[C@H](C)OC(=O)[C@H](C)NC(=O)c1nccc(OC)c1O` [Compound 57], the “SEPTTR 1DP disease control rating” value (Zymoseptoria tritici; [2]) was “B (≤80)”, the “SEPTTR 3DC disease control rating” value (Zymoseptoria tritici; [1]) was “A (>80)” and the “PUCCRT 1DP disease control rating” value (Puccinia triticina; [2]) was “A (>80)”. For the same molecule, the “PUCCRT 3DC disease control rating” value (Puccinia triticina; [1]) was “D (≤0)”.

`COc1cc(F)ccc1[C@@H](Sc1ccccc1)[C@H](C)OC(=O)[C@H](C)NC(=O)c1nccc(OC)c1OC(C)=O` [Compound 59] was tested, and the pest or weed control at 121.5 g/ha (Zymoseptoria tritici; [3]) was no more than 80%, the pest or weed control at 121.5 g/ha (Zymoseptoria tritici; [4]) was no more than 80% and the pest or weed control at 121.5 g/ha (Puccinia triticina; [5]) was greater than 80%.

In the case of `COc1ccnc(C(=O)N[C@@H](C)C(=O)O[C@@H](C)[C@@H](c2ccccc2)S(=O)(=O)c2ccc(C)cc2)c1OC(C)=O` [Compound 66], the pest or weed control at 25 ppm (Phakopsora pachyrhizi; [6]) was no more than 80%, the pest or weed control at 25 ppm (Phakopsora pachyrhizi; [7]) was no more than 80% and the pest or weed control at 121.5 g/ha (Zymoseptoria tritici; [3]) was greater than 80%. For the same molecule, the pest or weed control at 121.5 g/ha (Zymoseptoria tritici; [4]) was no more than 80%, the pest or weed control at 121.5 g/ha (Puccinia triticina; [5]) was no more than 80% and the pest or weed control at 121.5 g/ha (Puccinia triticina; [8]) was no more than 80%.

Work on `COc1ccnc(C(=O)N[C@@H](C)C(=O)O[C@@H](C)[C@@H](c2ccccc2)S(=O)(=O)c2ccc(C(F)(F)F)cn2)c1OC(C)=O` [Compound 71] yielded a pest or weed control at 25 ppm (Phakopsora pachyrhizi; [6]) of no more than 80%, a pest or weed control at 25 ppm (Phakopsora pachyrhizi; [7]) of no more than 80% and a pest or weed control at 121.5 g/ha (Zymoseptoria tritici; [3]) of no more than 80%. The pest or weed control at 121.5 g/ha (Zymoseptoria tritici; [4]) was no more than 80%, the pest or weed control at 121.5 g/ha (Puccinia triticina; [5]) was no more than 0% and the pest or weed control at 121.5 g/ha (Puccinia triticina; [8]) was no more than 80%.

Molecule `COc1ccnc(C(=O)N[C@@H](C)C(=O)O[C@@H](C)[C@H](Sc2ccccc2)c2ccccc2)c1OC(=O)OC(=O)C(C)C` [Compound 79] has a pest or weed control at 25 ppm (Phakopsora pachyrhizi; [6]) of no more than 80%, a pest or weed control at 25 ppm (Phakopsora pachyrhizi; [7]) of no more than 80% and a pest or weed control at 121.5 g/ha (Zymoseptoria tritici; [3]) greater than 80%. It also gave a pest or weed control at 121.5 g/ha (Zymoseptoria tritici; [4]) greater than 80%, a pest or weed control at 121.5 g/ha (Puccinia triticina; [5]) greater than 80% and a pest or weed control at 121.5 g/ha (Puccinia triticina; [8]) of no more than 80%.

Work on `COc1ccnc(C(=O)N[C@@H](C)C(=O)O[C@@H](C)[C@H](Sc2ccccc2)c2ccccc2)c1OC(=O)OC(C)=O` [Compound 80] yielded a pest or weed control at 25 ppm (Phakopsora pachyrhizi; [6]) of no more than 80%, a pest or weed control at 25 ppm (Phakopsora pachyrhizi; [7]) of no more than 80% and a pest or weed control at 121.5 g/ha (Zymoseptoria tritici; [3]) of no more than 80%. It also gave a pest or weed control at 121.5 g/ha (Zymoseptoria tritici; [4]) of no more than 80%, a pest or weed control at 121.5 g/ha (Puccinia triticina; [5]) greater than 80% and a pest or weed control at 121.5 g/ha (Puccinia triticina; [8]) of no more than 80%.

For `COc1ccnc(C(=O)N[C@@H](C)C(=O)O[C@@H](C)[C@H](Sc2ccc(F)cc2C)c2ccccc2)c1OC(C)=O` [Compound 83], the “SEPTTR 3DC disease control rating” value (Zymoseptoria tritici; [9]) was “D (≤0)”, the pest or weed control at 121.5 g/ha (Zymoseptoria tritici; [3]) was no more than 80% and the pest or weed control at 121.5 g/ha (Puccinia triticina; [8]) was no more than 0%.

`COc1cc(F)ccc1[C@@H](Sc1ccccc1)[C@H](C)OC(=O)[C@H](C)NC(=O)c1nccc(OC)c1OC(C)=O` [Compound 84] was tested, and the “PUCCRT 3DC disease control rating” value (Puccinia triticina; [9]) was “B (≤80)”.

For `COc1ccnc(C(=O)N[C@@H](C)C(=O)O[C@@H](C)[C@H](Sc2ccccc2)c2ccc(F)cc2)c1OC(C)=O` [Compound 85], the pest or weed control at 25 ppm (Phakopsora pachyrhizi; [6]) was no more than 80%, the pest or weed control at 25 ppm (Phakopsora pachyrhizi; [7]) was no more than 0% and the “SEPTTR 1DP disease control rating” value (Zymoseptoria tritici; LV activity at 121.5 g/H, 1 Day Protectant) was “B (≤80)”. The “SEPTTR 3DC disease control rating” value (Zymoseptoria tritici; [9]) was “D (≤0)” and the pest or weed control at 121.5 g/ha (Puccinia triticina; [8]) was no more than 0%.
